Counter-ions that a name gives are not always drawn. Like-named read-outs stand apart in the source and are kept apart here.
Tests used:
SHP2 = SHP2 (Homo sapiens (Human), UniProt Q06124); assay: SHP2 Biochemical Assay (DiFMUP conversion, pIRS1-activated)
Procedure, shortened: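 Human SHP2 (10 pM) pre-incubated 30 min with compound and […] pIRS1 activating peptide, then 50 μM DiFMUP added; buffer 25 mM Bis-Tris propane pH 7.0, 150 mM NaCl, 5% DMSO. Fluorescence rate (ex 360/em 450 nm) over 30 min; IC50 by four-parameter fit, averaged across experiments.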

[1] = test system: pERK (phospho-p44/42 MAPK Thr202/Tyr204) in HCC827 cells; assay: Cellular pERK Inhibition Assay, Method B (PathScan phospho-p44/42 MAPK sandwich ELISA); assay type: cell-based; conditions: for IC50: Homo sapiens
Protocol: Cellular pERK Inhibition Assay
HCC827 cells (ATCC, Manassas, USA) were seeded into 96-well plates at a density of 1×10^5 cells/well in RPMI medium supplemented with 10% FBS and incubated 24h. Compounds were diluted first in DMSO and then into serum-free medium, before being added to cells in triplicate to give a final concentration of 0.1% DMSO. Plates were incubated at 37° C. for the indicated time in a humidified atmosphere of 5% CO2 in air.
Following compound treatment, medium was removed and cells were lysed by adding 50 μL of lysis buffer (Cell Signalling Technology, Beverly, USA) to each well. Plates were then incubated at room temperature for 25 minutes with shaking. pERK levels were measured in lysates using the PathScan(Registered Trademark) phospho-p44/42 MAPK (Thr202/Tyr204) sandwich ELISA (Cell Signalling Technology, Beverly, USA) as per kit instructions. Briefly, 50 μL of cell lysate was added to 50 μL of ELISA sample diluent in a 96-well ELISA plate and incubated overnight at 4° C. Following washing, 100 μL of detection antibody was added per well and the plates incubated for 1 hour at 37° C. Plates were washed again and incubated at 37° C. for 30 minutes with 100 μl of HRP-linked secondary antibody per well. After final washing, 100 μL per well of TMB substrate was added and plates incubated at 37° C. to develop colour. Colour development was stopped by the addition of 100 μL per well of stop solution. Plates were read at 450 nm on a SpectraMax Gemini reader (Molecular Devices, Uckfield, UK).
The average signal from blank wells (no cells added) was subtracted from the signals from each sample well. Levels of pERK were then expressed as “percent of control”, using DMSO treated samples as control. Dose response curves were generated using GraphPad Prism Version 6 (GraphPad Software, La Jolla, USA) and fitted using the four parameter logistic curve fit.

[2] = Table 20, read-out: pERK (IC50, μM) Method B
[3] = Table 19, head prints unit as "-M"
[4] = Table 19, head prints unit as "-M", read-out: pERK (IC50) Method B

IC50 (SHP2; Table 20) [nM] | IC50 (SHP2; [3]) [nM] | IC50 [1, 4] [µM] | Compound | other results
45 |  |  | CCn1cc2c(Cl)c(-c3c[nH]c4nc(N5CC6CNC(C6)C5)n(C)c(=O)c34)ccc2n1 (single isomer, unassigned) [Example 190, 5-(4-chloro-2-ethyl-2H-indazol-5-yl)-2-{3,6-diazabicyclo[3.2.1]octan-3-yl}-3-methyl-3H,4H,7H-pyrrolo[2,3-d]pyrimidin-4-one hydrochloride] | IC50 [1, 2]: 3.3 µM
92 |  |  | CCn1cc2c(Cl)c(-c3c[nH]c4nc(N5CC6CNC(C6)C5)n(C)c(=O)c34)ccc2n1 (single isomer, unassigned) [Example 191, 5-(4-chloro-2-ethyl-2H-indazol-5-yl)-2-{3,6-diazabicyclo[3.2.1]octan-3-yl}-3-methyl-3H,4H,7H-pyrrolo[2,3-d]pyrimidin-4-one hydrochloride] | pERK Method B, % at given concentration ([1]; Table 20, at 10 uM): 60% at 10 uM
67 |  |  | CCn1cc2c(Cl)c(-c3c[nH]c4nc(N5CC6CNCC5C6)n(C)c(=O)c34)ccc2n1 (single isomer, unassigned) [Example 192, 5-(4-chloro-2-ethyl-2H-indazol-5-yl)-2-{3,6-diazabicyclo[3.2.1]octan-6-yl}-3-methyl-3H,4H,7H-pyrrolo[2,3-d]pyrimidin-4-one hydrochloride] | IC50 [1, 2]: 0.99 µM
34 |  |  | CCn1cc2cc(-c3c[nH]c4nc(N5CCC6(CC5)COC[C@H]6N)n(C)c(=O)c34)ccc2n1 [Example 180, 2-[(4S)-4-amino-2-oxa-8-azaspiro[4.5]decan-8-yl]-5-(2-ethyl-2H-indazol-5-yl)-3-methyl-3H,4H,7H-pyrrolo[2,3-d]pyrimidin-4-one hydrochloride] | IC50 [1, 2]: 0.85 µM
23 |  |  | CCn1cc2c(F)c(-c3c[nH]c4nc(N5CCC6(CC5)COC[C@H]6N)n(C)c(=O)c34)ccc2n1 [Example 181, 2-[(4S)-4-amino-2-oxa-8-azaspiro[4.5]decan-8-yl]-5-(2-ethyl-4-fluoro-2H-indazol-5-yl)-3-methyl-3H,4H,7H-pyrrolo[2,3-d]pyrimidin-4-one hydrochloride] | IC50 [1, 2]: 0.21 µM
36 |  |  | CCn1cc2ccc(-c3c[nH]c4nc(N5CCC6(CC5)COC[C@H]6N)n(C)c(=O)c34)c(Cl)c2n1 [Example 182, 2-[(4S)-4-amino-2-oxa-8-azaspiro[4.5]decan-8-yl]-5-(7-chloro-2-ethyl-2H-indazol-6-yl)-3-methyl-3H,4H,7H-pyrrolo[2,3-d]pyrimidin-4-one hydrochloride] | IC50 [1, 2]: 2.2 µM
70 |  |  | CCn1cc2ccc(-c3c[nH]c4nc(N5CCC6(CC5)COC[C@H]6N)n(C)c(=O)c34)c(F)c2n1 [Example 184, 2-[(4S)-4-amino-2-oxa-8-azaspiro[4.5]decan-8-yl]-5-(2-ethyl-7-fluoro-2H-indazol-6-yl)-3-methyl-3H,4H,7H-pyrrolo[2,3-d]pyrimidin-4-one hydrochloride] | IC50 [1, 2]: 1.1 µM

Continued, molecule first:

Compound | IC50 (SHP2; Table 20) [nM] | IC50 (SHP2; [3]) [nM] | IC50 [1, 4] [µM] | other results
Cn1cc2c(Cl)c(-c3n[nH]c4nc(N5[C@@H]6CC[C@H]5C[C@@H](N)C6)n(C)c(=O)c34)ccc2n1 [Example 136, endo-6-[3-amino-8-azabicyclo[3.2.1]octan-8-yl]-3-(4-chloro-2-methyl-2H-indazol-5-yl)-5-methyl-1H,4H,5H-pyrazolo[3,4-d]pyrimidin-4-one] |  | 30 | 2.7 | 
Cn1cc2c(Cl)c(-c3n[nH]c4nc(N5C6CCC5CNC6)n(C)c(=O)c34)ccc2n1 [Example 137, 3-(4-chloro-2-methyl-2H-indazol-5-yl)-6-{3,8-diazabicyclo[3.2.1]octan-8-yl}-5-methyl-1H,4H,5H-pyrazolo[3,4-d]pyrimidin-4-one] |  | 59 |  | pERK Method B, % at given concentration ([1]; Table 19, at 3.0 μM): 45% at 3.0 μM
Cn1cc2c(Cl)c(-c3n[nH]c4nc(N5CCC6(CC5)C[C@H](O)C[C@H]6N)n(C)c(=O)c34)ccc2n1 [Example 138, 6-[(1R,3S)-1-amino-3-hydroxy-8-azaspiro[4.5]decan-8-yl]-3-(4-chloro-2-methyl-2H-indazol-5-yl)-5-methyl-1H,4H,5H-pyrazolo[3,4-d]pyrimidin-4-one] |  | 19 | 1.6 | 
Cn1cc2c(Cl)c(-c3n[nH]c4nc(N5CCC6(CC5)COC[C@H]6N)n(C)c(=O)c34)ccc2n1 [Example 139, 6-[(4S)-4-amino-2-oxa-8-azaspiro[4.5]decan-8-yl]-3-(4-chloro-2-methyl-2H-indazol-5-yl)-5-methyl-1H,4H,5H-pyrazolo[3,4-d]pyrimidin-4-one] |  | 20 | 0.097 | 
Cn1cc2c(Cl)c(-c3n[nH]c4nc(N5[C@@H]6CC[C@H]5C[C@H](N)C6)n(C)c(=O)c34)ccc2n1 [Example 140, exo-6-[3-amino-8-azabicyclo[3.2.1]octan-8-yl]-3-(4-chloro-2-methyl-2H-indazol-5-yl)-5-methyl-1H,4H,5H-pyrazolo[3,4-d]pyrimidin-4-one] |  | 17 | 0.48 | 
Cn1cc2c(Cl)c(-c3n[nH]c4nc(N5CCC6(CC5)CNC6)n(C)c(=O)c34)ccc2n1 [Example 141, 3-(4-chloro-2-methyl-2H-indazol-5-yl)-6-{2,7-diazaspiro[3.5]nonan-7-yl}-5-methyl-1H,4H,5H-pyrazolo[3,4-d]pyrimidin-4-one] |  | 43 |  | pERK Method B, % at given concentration ([1]; Table 19, at 10 μM): 64% at 10 μM
Cn1cc2c(Cl)c(-c3n[nH]c4nc(N5CCC6(CCC[C@H]6N)CC5)n(C)c(=O)c34)ccc2n1 [Example 142, 6-[(1R)-1-amino-8-azaspiro[4.5]decan-8-yl]-3-(4-chloro-2-methyl-2H-indazol-5-yl)-5-methyl-1H,4H,5H-pyrazolo[3,4-d]pyrimidin-4-one] |  | 17 | 0.11 | 
C[C@@H]1OCC2(CCN(c3nc4[nH]nc(-c5ccc6nn(C)cc6c5Cl)c4c(=O)n3C)CC2)[C@@H]1N [Example 143, 6-[(3S,4S)-4-amino-3-methyl-2-oxa-8-azaspiro[4.5]decan-8-yl]-3-(4-chloro-2-methyl-2H-indazol-5-yl)-5-methyl-1H,4H,5H-pyrazolo[3,4-d]pyrimidin-4-one] |  | 22 | 0.081 | 
Cn1cc2c(Cl)c(-c3n[nH]c4nc(N5CCC6(CC5)C[C@@H](F)C[C@H]6N)n(C)c(=O)c34)ccc2n1 [Example 144, 6-[(1R,3R)-1-amino-3-fluoro-8-azaspiro[4.5]decan-8-yl]-3-(4-chloro-2-methyl-2H-indazol-5-yl)-5-methyl-1H,4H,5H-pyrazolo[3,4-d]pyrimidin-4-one hydrochloride salt] |  | 19 | 0.21 | 
Cn1nc2ccc(-c3n[nH]c4nc(N5CC6COCC(C5)N6)n(C)c(=O)c34)c(Cl)c2c1Cl [Example 146, 3-(3,4-dichloro-2-methyl-2H-indazol-5-yl)-5-methyl-6-{3-oxa-7,9-diazabicyclo[3.3.1]nonan-7-yl}-1H,4H,5H-pyrazolo[3,4-d]pyrimidin-4-one hydrochloride salt] |  | 57 | 3.8 | 
C[C@@H]1OCC2(CCN(c3nc4[nH]nc(-c5ccc6nn(C)c(Cl)c6c5Cl)c4c(=O)n3C)CC2)[C@@H]1N [Example 147, 6-[(3S,4S)-4-amino-3-methyl-2-oxa-8-azaspiro[4.5]decan-8-yl]-3-(3,4-dichloro-2-methyl-2H-indazol-5-yl)-5-methyl-1H,4H,5H-pyrazolo[3,4-d]pyrimidin-4-one hydrochloride salt] |  | 12 | 0.034 | 
CCn1cc2c(Cl)c(-c3n[nH]c4nc(N5CCC6(CC5)CO[C@@H](C)[C@H]6N)n(C)c(=O)c34)ccc2n1 [Example 148, 6-[(3S,4S)-4-amino-3-methyl-2-oxa-8-azaspiro[4.5]decan-8-yl]-3-(4-chloro-2-ethyl-2H-indazol-5-yl)-5-methyl-1H,4H,5H-pyrazolo[3,4-d]pyrimidin-4-one hydrochloride salt] |  | 24 | 0.025 | 
CCn1cc2c(Cl)c(-c3c[nH]c4nc(N5CCC6(CC5)CO[C@@H](C)[C@H]6N)n(C)c(=O)c34)ccc2n1 [Example 150, 2-[(3S,4S)-4-amino-3-methyl-2-oxa-8-azaspiro[4.5]decan-8-yl]-5-(4-chloro-2-ethyl-2H-indazol-5-yl)-3-methyl-3H,4H,7H-pyrrolo[2,3-d]pyrimidin-4-one] |  | 12 | 0.013 | 
CCn1cc2c(Cl)c(-c3c[nH]c4nc(N5CCCNCC5)n(C)c(=O)c34)ccc2n1 [Example 151, 5-(4-chloro-2-ethyl-2H-indazol-5-yl)-2-(1,4-diazepan-1-yl)-3-methyl-3H,4H,7H-pyrrolo[2,3-d]pyrimidin-4-one hydrochloride] |  | 23 | 0.52 | 

— US12037345B2, “Heterobicyclic compounds for inhibiting the activity of SHP2” (TAIHO PHARMACEUTICAL CO., LTD., priority 2018, dated 2024)
